The record followed here is patent US8394969B2, “Cyclic benzimidazole derivatives useful as anti-diabetic agents” (Merck Sharp & Dohme Corp., priority 2008, dated 2013).

For the test, the target named is recombinant human AMPK complex 1 (containing α1β1γ1) (Homo sapiens, UniProt Q13131+Q9Y478). The test is described as follows: […] (in vitro AMPK activation assay). The settings on record: recombinant human AMPK complex 1 (α1β1γ1); for Emax: basal activity subtracted, read-out: % Maximum AMP Activation of human AMPK Complex 1. It is filed as biochemical.
Chain of recombinant human AMPK complex 1 (containing α1β1γ1) (Q13131 whole entry): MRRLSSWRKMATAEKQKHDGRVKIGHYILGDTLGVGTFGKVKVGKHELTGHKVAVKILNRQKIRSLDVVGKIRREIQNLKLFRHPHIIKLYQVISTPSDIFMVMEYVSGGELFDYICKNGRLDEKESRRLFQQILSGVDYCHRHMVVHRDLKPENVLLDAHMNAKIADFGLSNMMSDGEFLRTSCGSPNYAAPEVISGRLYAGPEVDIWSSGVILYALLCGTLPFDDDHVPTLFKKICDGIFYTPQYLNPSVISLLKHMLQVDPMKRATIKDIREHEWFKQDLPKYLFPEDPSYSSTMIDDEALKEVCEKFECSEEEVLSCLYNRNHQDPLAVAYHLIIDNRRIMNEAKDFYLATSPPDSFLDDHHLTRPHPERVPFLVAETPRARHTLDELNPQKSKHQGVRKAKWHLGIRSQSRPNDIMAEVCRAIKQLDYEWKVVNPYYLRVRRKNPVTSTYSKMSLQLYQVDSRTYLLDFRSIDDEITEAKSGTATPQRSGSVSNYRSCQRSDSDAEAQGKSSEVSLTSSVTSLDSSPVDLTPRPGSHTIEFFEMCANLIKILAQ
Chain of recombinant human AMPK complex 1 (containing α1β1γ1) (Q9Y478 whole entry): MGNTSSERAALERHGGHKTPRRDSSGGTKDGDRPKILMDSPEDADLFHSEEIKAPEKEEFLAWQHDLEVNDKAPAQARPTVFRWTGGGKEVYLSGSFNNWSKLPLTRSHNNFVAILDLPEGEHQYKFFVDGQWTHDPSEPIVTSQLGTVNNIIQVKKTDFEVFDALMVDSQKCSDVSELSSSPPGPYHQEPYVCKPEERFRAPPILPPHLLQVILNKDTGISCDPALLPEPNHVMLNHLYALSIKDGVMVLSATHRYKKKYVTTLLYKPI
Chain of recombinant human AMPK complex 1 (containing α1β1γ1) (P54619 whole entry partner): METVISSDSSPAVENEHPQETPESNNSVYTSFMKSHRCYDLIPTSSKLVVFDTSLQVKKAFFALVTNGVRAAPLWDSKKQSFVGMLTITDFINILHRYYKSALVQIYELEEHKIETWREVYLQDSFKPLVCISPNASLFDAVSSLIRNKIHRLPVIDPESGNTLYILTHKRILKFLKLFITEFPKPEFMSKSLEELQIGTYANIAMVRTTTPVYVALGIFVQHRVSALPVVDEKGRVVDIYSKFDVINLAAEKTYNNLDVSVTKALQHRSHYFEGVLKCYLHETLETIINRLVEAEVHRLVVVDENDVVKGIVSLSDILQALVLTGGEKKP

Where a name gives a salt, the structure may show the parent alone.

As for `COC(=O)c1cc(Oc2nc3cc(C#Cc4ccc(OC)cc4)c(Cl)cc3[nH]2)ccc1C` [Example 122, 5-[6-Chloro-5-(4-methoxy-phenylethynyl)-1H-benzoimidazol-2-yloxy]-2-methyl-benzoic acid methyl ester], the Emax was above 80%.
Regarding `COC(=O)c1cc(Oc2nc3cc(C#Cc4ccc(-c5cnco5)cc4)c(Cl)cc3[nH]2)ccc1C` [Example 123, 5-[6-Chloro-5-(4-oxazol-5-yl-phenylethynyl)-1H-benzoimidazol-2-yloxy]-2-methyl-benzoic acid methyl ester], the Emax is above 80%.
`Cc1ccc(Oc2nc3cc(C#Cc4cccc(O)c4)c(Cl)cc3[nH]2)cc1C(=O)O` [Example 124, 5-[6-Chloro-5-(3-hydroxy-phenylethynyl)-1H-benzoimidazol-2-yloxy]-2-methyl-benzoic acid]: the Emax is above 80%.
Same read-out and setting: as for `COC(=O)c1cc(Oc2nc3cc(C#Cc4cccc(O)c4)c(Cl)cc3[nH]2)ccc1C` [Example 125, 5-[6-Chloro-5-(3-hydroxy-phenylethynyl)-1H-benzoimidazol-2-yloxy]-2-methyl-benzoic acid methyl ester], the figure is above 80%; as for `Cc1ccc(Oc2nc3cc(C#Cc4cccc(C(=O)O)c4)c(Cl)cc3[nH]2)cc1C(=O)O` [Example 126, 5-[5-(3-Carboxy-phenylethynyl)-6-chloro-1H-benzoimidazol-2-yloxy]-2-methyl-benzoic acid], above 80%.
Still for that read-out and setting: as for `COc1cc(C(=O)O)ccc1C#Cc1cc2nc(Oc3ccc(C)c(C(=O)O)c3)[nH]c2cc1Cl` [Example 127, 5-({5-[(4-carboxy-2-methoxyphenyl)ethynyl]-6-chloro-1H benzimidazol-2-yl}oxy)-2-methylbenzoic acid], the figure is above 80%; as for `Cc1ccc(Oc2nc3cc(C#Cc4ccc(=O)[nH]c4)c(Cl)cc3[nH]2)cc1C(=O)O` [Example 128, 5-[6-Chloro-5-(6-oxo-1,6-dihydro-pyridin-3-ylethynyl)-1H-benzoimidazol-2-yloxy]-2-methyl-benzoic acid], above 80%; as for `COc1ccc(C#Cc2cc3nc(Oc4ccc(C)c(C(=O)O)c4)[nH]c3cc2Cl)cn1` [Example 129, 5-[6-Chloro-5-(6-methoxy-pyridin-3-ylethynyl)-1H-benzoimidazol-2-yloxy]-2-methyl-benzoic acid], above 80%.
Same read-out and setting: then `Cc1ccc(Oc2nc3cc(C#CC4CCCC4O)c(Cl)cc3[nH]2)cc1C(=O)O` (centres unmarked) [Example 130, 5-[6-Chloro-5-(2-hydroxy-cyclopentylethynyl)-1H-benzoimidazol-2-yloxy]-2-methyl-benzoic acid], with above 80%; and `Cc1ccc(Oc2nc3cc(C#Cc4cccnc4)c(Cl)cc3[nH]2)cc1C(=O)O` [Example 131, 5-(6-Chloro-5-pyridin-3-ylethynyl-1H-benzoimidazol-2-yloxy)-2-methyl-benzoic acid], with above 80%; and `Cc1ccc(C#Cc2cc3nc(Oc4ccc(C)c(C(=O)O)c4)[nH]c3cc2Cl)cn1` [Example 132, 5-[6-Chloro-5-(6-methyl-pyridin-3-ylethynyl)-1H-benzoimidazol-2-yloxy]-2-methyl-benzoic acid], with above 80%.
Take `COC(=O)c1cc(Oc2nc3cc(C#Cc4cccnc4)c(Cl)cc3[nH]2)ccc1C` [Example 133, 5-(6-Chloro-5-pyridin-3-ylethynyl-1H-benzoimidazol-2-yloxy)-2-methyl-benzoic acid methyl ester]: the Emax was above 80%.
Same read-out and setting: as for `Cc1ccc(Oc2nc3cc(C#Cc4cncn4C)c(Cl)cc3[nH]2)cc1C(=O)O` [Example 134, 5-[6-Chloro-5-(3-methyl-3H-imidazol-4-ylethynyl)-1H-benzoimidazol-2-yloxy]-2-methyl-benzoic acid], the figure is above 80%; as for `Cc1ccc(Oc2nc3cc(C#CC4(O)CCCC4)c(Cl)cc3[nH]2)cc1C(=O)O` [Example 135, 5[6-Chloro-5-(1-hydroxy-cyclopentylethynyl)-1H-benzoimidazol-2-yloxy]-2-methyl-benzoic acid], above 80%; as for `COC(=O)c1cc(Oc2nc3cc(C#Cc4cncn4C)c(Cl)cc3[nH]2)ccc1C` [Example 136, 5-[6-Chloro-5-(3-methyl-3H-imidazol-4-ylethynyl)-1H-benzoimidazol-2-yloxy]-2-methyl-benzoic acid methyl ester], above 80%.
`COC(=O)c1cc(Oc2nc3cc(C#CC4(O)CCCC4)c(Cl)cc3[nH]2)ccc1C` [Example 137, 5-[6-Chloro-5-(1-hydroxy-cyclopentylethynyl)-1H-benzoimidazol-2-yloxy]-2-methyl-benzoic acid methyl ester]: the Emax was above 80%.
On the same count and under the same terms, then `Cc1ccc(Oc2nc3cc(C#CC4CCNC4)c(Cl)cc3[nH]2)cc1C(=O)O` (centres unmarked) [Example 138, 5-(6-Chloro-5-pyrrolidin-3-ylethynyl-1H-benzoimidazol-2-yloxy)-2-methyl-benzoic acid], with above 80%; and `O=C(O)c1cccc(Nc2nc3cc(C#Cc4ccccc4)c(Cl)cc3[nH]2)c1` [Example 139, 3-(6-Chloro-5-phenylethynyl-1H-benzoimidazol-2-ylamino)-benzoic acid], with above 80%; and `Cc1ccc(Oc2nc3cc(-c4ccc5[nH]cnc5c4)c(Cl)cc3[nH]2)cc1C(=O)O` [Example 140, 2-(3-Carboxy-4-methyl-phenoxy)-6-chloro-1H,1′H-[5,5′]bibenzoimidazolyl-3-ium; chloride], with above 80%.
Same read-out and setting: as for `Cc1ccc(Oc2nc3cc(-c4ccc5onc(C)c5c4)c(Cl)cc3[nH]2)cc1C(=O)O` [Example 141, 5-[6-Chloro-5-(3-methyl-benzo[d]isoxazol-5-yl)-1H-benzoimidazol-2-yloxy]-2-methyl-benzoic acid], the figure is above 80%; as for `Cc1ccc(Oc2nc3cc(-c4ccc5c(cnn5C)c4)c(Cl)cc3[nH]2)cc1C(=O)O` [Example 142, 5-[6-Chloro-5-(1-methyl-1H-indazol-5-yl)-1H-benzoimidazol-2-yloxy]-2-methyl-benzoic acid], above 80%.
On the same count and under the same terms, as for `Cc1ccc(Oc2nc3cc(-c4cnc5c(c4)OCCN5C)c(Cl)cc3[nH]2)cc1C(=O)O` [Example 143, 2-(3-carboxy-4-methylphenoxy)-6-chloro-5-(4-methyl-3,4-dihydro-2H-pyrido[3,2-b] [1,4]oxazin-7-yl)-1H-3,1-benzimidazol-3-ium trifluoroacetate], the figure is above 80%; as for `Cc1ccc(Oc2nc3cc(-c4cnc5c(ccn5C)c4)c(Cl)cc3[nH]2)cc1C(=O)O` [Example 144, 2-(3-carboxy-4-methylphenoxy)-6-chloro-5-(1-methyl-1H-pyrrolo[2,3-b]pyridin-5-yl)-1H-3,1-benzimidazol-3-ium chloride], above 80%; as for `COc1ccc2cc(-c3cc4nc(Oc5ccc(C)c(C(=O)O)c5)[nH]c4cc3Cl)ccc2c1` [Example 145, 5-[6-Chloro-5-(6-methoxy-naphthalen-2-yl)-1H-benzoimidazol-2-yloxy]-2-methyl-benzoic acid], above 80%.
Take `COc1ccc2cc(-c3cc4nc(Oc5ccc(C)c(C(=O)O)c5)[nH]c4cc3Cl)ccc2n1` [Example 146, 5-[6-Chloro-5-(2-methoxy-quinolin-6-yl)-1H-benzoimidazol-2-yloxy]-2-methyl-benzoic acid]: the Emax is above 80%.
Same read-out and setting: as for `Cc1ccc(Oc2nc3cc(-c4ccc5c(c4)[nH]c4ccccc45)c(Cl)cc3[nH]2)cc1C(=O)O` [Example 147, 5-[5-(9H-Carbazol-2 yl)-6-chloro-1H-benzoimidazol-2-yloxy]-2-methyl-benzoic acid], the figure is above 80%; as for `Cc1ccc(Oc2nc3cc(-c4cnc5ccccc5c4)c(Cl)cc3[nH]2)cc1C(=O)O` [Example 148, 2-(3-carboxy-4-methylphenoxy)-6-chloro-5-quinolin-3-yl-1H-3,1-benzimidazol-3-ium chloride], above 80%.
Regarding `Cc1ccc(Oc2nc3cc(-c4ccc5nnn(C)c5c4)c(Cl)cc3[nH]2)cc1C(=O)O` [Example 149, 5-[6-Chloro-5-(3-methyl-3H-benzotriazol-5-yl)-1H-benzoimidazol-2-yloxy]-2-methyl-benzoic acid], the Emax is above 80%.
On to `Cc1ccc(Oc2nc3cc(-c4ccc5ncccc5c4)c(Cl)cc3[nH]2)cc1C(=O)O` [Example 150, 2-(3-carboxy-4-methylphenoxy)-6-chloro-5-quinolin-6-yl-1H-3,1-benzimidazol-3-ium chloride], for which the Emax is above 80%.
A word on the EC50: it is the concentration at which the effect is half-maximal. Consider `Cc1ccc(Oc2nc3cc(-c4ccc5c(c4)OCCN5C)c(Cl)cc3[nH]2)cc1C(=O)O` [Example 151, 2-(3-carboxy-4-methylphenoxy)-6-chloro-5-(4-methyl-3,4-dihydro-2H-1,4-benzoxazin-7-yl)-1H-3,1-benzimidazol-3-ium chloride], for which, for the setting “read-out: EC50”, the 50% effective concentration (EC50) is 22 nM.
For `Cc1ccc(Oc2nc3cc(-c4ccc5nncn5c4)c(Cl)cc3[nH]2)cc1C(=O)O` [Example 152, 5-(6-Chloro-5-[1,2,4]triazolo[4,3-a]pyridin-6-yl-1H-benzoimidazol-2-yloxy)-2-methyl-benzoic acid], the Emax is above 80%.
Still for that read-out and setting: then `Cc1ccc(Oc2nc3cc(-c4ccc5[nH]ncc5c4)c(Cl)cc3[nH]2)cc1C(=O)O` [Example 153, 5-[6-Chloro-5-(1H-indazol-5-yl)-1H-benzoimidazol-2-yloxy]-2-methyl-benzoic acid], with above 80%; and `Cc1ccc(Oc2nc3cc(C#CC(C)(C)O)c(Cl)cc3[nH]2)cc1C(=O)O` [Example 154, 5-[6-Chloro-5-(3-hydroxy-3-methyl-but-1-ynyl)-1H-benzoimidazol-2-yloxy]-2-methyl-benzoic acid], with above 80%.
Still for that read-out and setting: then `Cc1ccc(Oc2nc3cc(-c4ccc(C(C)O)cc4)c(Cl)cc3[nH]2)cc1C(=O)O` (centres unmarked) [Example 156, 5-{6-Chloro-5-[4-(1-hydroxy-ethyl)-phenyl]-1H-benzoimidazol-2-yloxy}-2-methyl-benzoic acid], with above 80%; and `CC(=O)c1ccc(-c2cc3nc(Oc4ccc(C)c(C(=O)O)c4)[nH]c3cc2Cl)cc1` [Example 157, 5-{5-(4-Acetyl-phenyl)-6-chloro-1H-benzoimidazol-2-yloxy]-2-methyl-benzoic acid], with above 80%.
